According to US6391656B2, “Assay and reagent kit for evaluation of multi-drug resistance in cells” (SOLVO Biotechnology, priority 1994, dated 2002):
≈ marks a conversion by molar mass, not a printed value. Like-named read-outs stand apart in the source and are kept apart here.

Legend:
MDR1 [1] = biological target: T1, MDR1 (Homo sapiens, UniProt P08183); assay: Inhibition of MDR1-mediated calcein-AM extrusion (calcein accumulation) in 3T3 MDR and K562 MDR cells
MRP = biological target: T2, MRP (Homo sapiens, UniProt P33527); assay: Inhibition of MRP-mediated calcein-AM extrusion (calcein accumulation) in S1MRP and HL60 ADR cells; type: cell-based
T2 construct: endogenous in cells
T2 sequence (P33527 whole entry): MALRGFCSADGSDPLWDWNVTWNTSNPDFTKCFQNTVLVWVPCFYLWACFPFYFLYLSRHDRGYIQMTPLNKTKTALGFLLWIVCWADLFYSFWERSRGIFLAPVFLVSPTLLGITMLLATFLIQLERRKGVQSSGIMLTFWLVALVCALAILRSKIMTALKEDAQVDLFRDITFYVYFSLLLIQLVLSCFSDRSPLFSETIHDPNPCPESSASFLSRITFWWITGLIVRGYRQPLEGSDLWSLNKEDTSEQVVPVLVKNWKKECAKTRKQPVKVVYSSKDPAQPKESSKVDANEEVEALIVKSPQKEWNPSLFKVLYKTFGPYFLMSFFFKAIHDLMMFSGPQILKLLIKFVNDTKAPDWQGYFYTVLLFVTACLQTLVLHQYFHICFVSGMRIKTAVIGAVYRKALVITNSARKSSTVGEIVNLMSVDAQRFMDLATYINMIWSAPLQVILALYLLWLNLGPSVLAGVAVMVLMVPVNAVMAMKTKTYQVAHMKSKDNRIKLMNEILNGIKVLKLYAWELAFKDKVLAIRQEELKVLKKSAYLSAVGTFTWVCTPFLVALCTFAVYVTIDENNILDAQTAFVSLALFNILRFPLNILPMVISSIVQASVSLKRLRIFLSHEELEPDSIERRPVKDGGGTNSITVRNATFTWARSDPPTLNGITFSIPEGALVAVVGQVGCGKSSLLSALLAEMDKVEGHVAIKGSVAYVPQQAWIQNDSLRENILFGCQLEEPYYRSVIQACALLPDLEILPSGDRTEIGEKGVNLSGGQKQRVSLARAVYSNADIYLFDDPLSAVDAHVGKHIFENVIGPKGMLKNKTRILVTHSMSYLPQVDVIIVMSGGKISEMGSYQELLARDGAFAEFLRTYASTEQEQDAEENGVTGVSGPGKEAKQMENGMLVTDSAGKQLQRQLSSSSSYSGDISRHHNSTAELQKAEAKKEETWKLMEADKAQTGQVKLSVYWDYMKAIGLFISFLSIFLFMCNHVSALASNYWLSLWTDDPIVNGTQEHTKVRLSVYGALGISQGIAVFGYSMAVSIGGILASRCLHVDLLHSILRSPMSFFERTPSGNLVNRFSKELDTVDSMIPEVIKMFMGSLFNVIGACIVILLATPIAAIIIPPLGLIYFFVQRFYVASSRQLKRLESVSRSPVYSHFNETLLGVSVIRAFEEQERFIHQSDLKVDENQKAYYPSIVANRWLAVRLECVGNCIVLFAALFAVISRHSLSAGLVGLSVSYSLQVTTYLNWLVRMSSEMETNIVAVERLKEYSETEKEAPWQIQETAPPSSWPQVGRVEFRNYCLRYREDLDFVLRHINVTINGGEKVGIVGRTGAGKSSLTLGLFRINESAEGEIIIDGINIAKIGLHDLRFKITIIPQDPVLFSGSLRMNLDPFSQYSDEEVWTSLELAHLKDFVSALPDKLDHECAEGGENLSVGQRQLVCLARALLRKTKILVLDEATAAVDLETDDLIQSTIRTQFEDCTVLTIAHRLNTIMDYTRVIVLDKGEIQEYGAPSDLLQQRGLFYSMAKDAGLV

KB3 cells = assay: Calcein accumulation by flow cytometry in control cells; conditions: 100 μmol/l verapamil pretreatment 5 min, control cell line KB3
Protocol: In the experiments shown in FIG. 2 a drug sensitive (control, cell line KB3) and three increasingly multi-drug resistant (cell lines KB-V1a-c) human epidermoid carcinoma cell lines were examined.
As all the specimens were incubated for the same time (10 min) with calcein-AM, the measure of the accumulation of calcein detected exactly after 10 minutes can be taken as the rate of calcein accumulation.

P388-C cells [2] = assay: Calcein accumulation by fluorescent spectrophotometry in control cells; type: cell-based, murine; conditions: 100 μmol/l verapamil
From the text: (§1) Elapsed time is shown on the abscissa and fluorescence intensity in arbitrary units is shown on the ordinate.

P388-MDRa cells = assay: Cytotoxicity assay, adriamycin resistance; type: cell-based, murine; conditions: Mus musculus; P388-MDRa cell line
From the text: as §1

P388-C cells [3] = assay: Cytotoxicity assay, adriamycin resistance; type: cell-based, murine; conditions: Mus musculus; P388-C control cell line
From the text: as §1

P388-MDRb cells = assay: Cytotoxicity assay, adriamycin resistance; type: cell-based, murine; conditions: Mus musculus; P388-MDRb cell line
From the text: as §1

K562-MDR cells = assay: Cytotoxicity assay, 3 days culture with adriamycin; type: cell-based; conditions: Homo sapiens, 72 h, K562-MDR cell line, read-out: Resistance to Adriamycin (IC50, ng/ml)
Protocol: (§2) Cells were cultured for 3 days under standard conditions in the presence of 0.1-100 ng/ml adriamycin. The number of cells in the different cell cultures is given as the percentage of the number of cells counted in the culture not treated with the drug. As it can well be seen on FIG. 5, the really expressed drug resistance is in much better accordance with the results obtained by the method of the invention based on the measurement of calcein accumulation than with those obtained by the traditional immunological measurement of MDR expression.
(§3) Cells were cultured for 3 days under standard conditions in the presence of 0.1-100 ng/ml adriamycin. The number of cells in the different cell cultures is given as the percentage of the number of cells counted in the culture not treated with the drug.

K562-C cells = assay: Cytotoxicity assay, 3 days culture with adriamycin; type: cell-based; conditions: Homo sapiens, 72 h, K562-C cell line, read-out: Resistance to Adriamycin (IC50, ng/ml)
Protocol: as §2, §3

K562-mMDR cells = assay: Cytotoxicity assay, 3 days culture with adriamycin; type: cell-based; conditions: Homo sapiens, 72 h, K562-mMDR cell line (inactive mutant MDR protein), read-out: Resistance to Adriamycin (IC50, ng/ml)
Protocol: as §2, §3

MDR dependent ATPase = MDR dependent ATPase (Homo sapiens, UniProt P08183); conditions: cited from earlier work
MDR dependent ATPase, sequence (P08183 whole entry): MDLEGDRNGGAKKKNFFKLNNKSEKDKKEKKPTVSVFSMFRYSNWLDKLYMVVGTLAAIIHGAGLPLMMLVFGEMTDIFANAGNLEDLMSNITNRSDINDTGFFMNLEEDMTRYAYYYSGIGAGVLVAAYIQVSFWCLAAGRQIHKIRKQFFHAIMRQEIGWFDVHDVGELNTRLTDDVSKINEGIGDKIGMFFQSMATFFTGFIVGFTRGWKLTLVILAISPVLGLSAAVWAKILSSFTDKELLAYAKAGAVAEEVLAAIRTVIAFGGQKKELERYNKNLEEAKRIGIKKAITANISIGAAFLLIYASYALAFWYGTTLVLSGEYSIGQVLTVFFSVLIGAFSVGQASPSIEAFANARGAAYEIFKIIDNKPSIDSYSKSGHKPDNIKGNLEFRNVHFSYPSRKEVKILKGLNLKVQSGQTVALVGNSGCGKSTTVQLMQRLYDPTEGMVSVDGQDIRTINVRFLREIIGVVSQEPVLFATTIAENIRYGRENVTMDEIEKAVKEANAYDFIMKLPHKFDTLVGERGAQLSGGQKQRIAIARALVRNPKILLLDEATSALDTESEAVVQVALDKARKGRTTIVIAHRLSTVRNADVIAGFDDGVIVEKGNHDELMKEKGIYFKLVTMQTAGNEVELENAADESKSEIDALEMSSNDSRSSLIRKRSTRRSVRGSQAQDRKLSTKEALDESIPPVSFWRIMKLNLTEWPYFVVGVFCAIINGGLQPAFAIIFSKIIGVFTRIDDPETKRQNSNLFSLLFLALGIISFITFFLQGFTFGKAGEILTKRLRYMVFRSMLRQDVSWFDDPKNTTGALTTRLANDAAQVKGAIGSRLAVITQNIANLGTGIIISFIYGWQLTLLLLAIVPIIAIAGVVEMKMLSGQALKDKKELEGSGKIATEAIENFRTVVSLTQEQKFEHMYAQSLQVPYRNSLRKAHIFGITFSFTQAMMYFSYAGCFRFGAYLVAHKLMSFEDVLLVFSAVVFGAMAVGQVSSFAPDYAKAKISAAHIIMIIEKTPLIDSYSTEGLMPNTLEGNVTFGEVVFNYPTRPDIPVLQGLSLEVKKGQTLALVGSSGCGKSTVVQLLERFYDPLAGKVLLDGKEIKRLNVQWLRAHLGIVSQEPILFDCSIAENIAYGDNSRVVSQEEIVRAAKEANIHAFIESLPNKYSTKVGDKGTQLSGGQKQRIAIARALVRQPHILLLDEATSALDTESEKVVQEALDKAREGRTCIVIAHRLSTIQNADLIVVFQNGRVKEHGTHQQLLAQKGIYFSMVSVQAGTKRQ

MDR1 [4] = biological target: T1, MDR1
[5] = inhibition of MRP-mediated calcein-AM extrusion, S1MRP and HL60 ADR cells, range of at least 3 independent experiments with each cell line, read-out: IC50 MRP
[6] = read-out: IC50 MDR1, inhibition of MDR1-mediated calcein-AM extrusion, 3T3 MDR and K562 MDR cells, range of at least 3 independent experiments, > = 50% inhibition not achieved (a solubility problem, b esterase inhibition)

T1 sequence (P08183 whole entry): as above

| IC50 (MDR1 [1]) [µM] | Compound | IC50 (MRP; [5]) [µM] | other results |
| --- | --- | --- | --- |
| – | O=[N+]([O-])c1ccc(O)c([N+](=O)[O-])c1 [2,4-DNP] | 30 to 50 | IC50 (MDR1 [1]; [6]): > 200 µM |
| – | COc1ccc(CCN(C)CCCC(C#N)(c2ccc(OC)c(OC)c2)C(C)C)cc1OC (centres unmarked) [Verapamil] | – | effect on calcein accumulation (KB3 cells): no detectable effect; effect on rate of calcein accumulation (P388-C cells [2]): not influenced |
| > 500 | CCc1oc2ccccc2c1C(=O)c1cc(Br)c(O)c(Br)c1 [Benzbromarone] | – | – |
| > 800 | C=C(CC)C(=O)c1ccc(OCC(=O)O)c(Cl)c1Cl [Ethacrynic acid] | 20 to 30 | – |
| > 800 | COc1ccc2c(c1)c(CC(=O)O)c(C)n2C(=O)c1ccc(Cl)cc1 [Indomethacin] | 10 to 20 | – |
| > 2000 | O=C1C(CC[S+]([O-])c2ccccc2)C(=O)N(c2ccccc2)N1c1ccccc1 (centres unmarked) [Sulfinpyrazone] | 300 to 500 | – |
| – | COc1cccc2c1C(=O)c1c(O)c3c(c(O)c1C2=O)C[C@@](O)(C(=O)CO)C[C@@H]3O[C@H]1C[C@H](N)[C@H](O)[C@H](C)O1 [Adriamycin] | – | IC50 (P388-MDRa cells): 4 ng/mL (≈ 7.36 nM); IC50 (P388-C cells [3]): 0.5 ng/mL (≈ 0.92 nM); IC50 (P388-MDRb cells): 9 ng/mL (≈ 16.6 nM); IC50 (K562-MDR cells): 3.1 ng/mL (≈ 5.7 nM); IC50 (K562-C cells): 0.7 ng/mL (≈ 1.29 nM); IC50 (K562-mMDR cells): 0.35 ng/mL (≈ 0.644 nM) |
| – | CCCCC[C@H](O)/C=C/[C@H]1C=CC(=O)[C@@H]1CCCCCCC(=O)O [Prostaglandin A1] | 3 to 5 | IC50 (MDR1 [1]; [6]): > 100 µM |
| – | C=C[C@H]1C[N@@]2CC[C@H]1C[C@H]2[C@H](O)c1ccnc2ccc(OC)cc12 [Quinine] | 50 to 100 | – |
| – | O=C1OC(c2ccc(O)c(S(=O)(=O)O)c2)(c2ccc(O)c(S(=O)(=O)O)c2)c2c(Br)c(Br)c(Br)c(Br)c21 [Bromosulfophthalein] | 100 to 150 | IC50 (MDR1 [1]; [6]): > 1000 µM |
| – | calcein-acetoxy-methylester [calcein-AM] | – | Ka, activation of the MDR dependent ATPase (MDR dependent ATPase): ≤ 1 µmol/L |
| – | CC[C@]1(O)C[C@@H]2CN(CCc3c([nH]c4ccccc34)[C@@](C(=O)OC)(c3cc4c(cc3OC)N(C)[C@H]3[C@@](O)(C(=O)OC)[C@H](OC(C)=O)[C@]5(CC)C=CCN6CC[C@]43[C@@H]65)C2)C1 [Vinblastine] | 2 to 5 | – |
| 1 to 3 | Clc1ccc(COC(Cn2ccnc2)c2ccc(Cl)cc2Cl)cc1 (centres unmarked) [Econazole] | 3 to 10 | – |
| – | N#CC(C#N)=NNc1cccc(Cl)c1 [CCCP] | 10 to 30 | IC50 (MDR1 [4]): > 200 µM |
| > 2000 | CCCN(CCC)S(=O)(=O)c1ccc(C(=O)O)cc1 [Probenacid, Probenecid] | 500 to 800 | – |
| – | CC/C(=C(\c1ccccc1)c1ccc(OCCN(C)C)cc1)c1ccccc1 [Tamoxifen] | 3 to 6 | – |
| – | C[CH2][Hg][S]c1ccccc1C(=O)[O-].[Na+] [Merthiolate] | 10 to 20 | IC50 (MDR1 [1]; [6]): > 200 µM |

| Compound | IC50 (MDR1 [1]) [µM] | IC50 (MRP; [5]) [µM] | other results |
| --- | --- | --- | --- |
| CCN1C(=O)C=CC1=O [NEM, N-ethylmaleimide] | > 50 | 0.2 to 0.5 | – |
| O=C(O)CCCc1ccc(N(CCCl)CCCl)cc1 [Chlorambucil] | > 500 | – | IC50 (MRP): 30 to 50 µM |
| O=c1c(-c2ccc(O)cc2)coc2cc(O)cc(O)c12 [Genistein] | > 1000 | 150 to 200 | – |
| CC[C@H]1/C=C/C=C/C[C@@H](C)[C@H](O)[C@@](C)(O)C(=O)[C@@H](C)[C@H](O)[C@@H](C)C(=O)[C@@H](C)[C@H](O)[C@@H](C)/C=C/C(=O)O[C@@H]2[C@H](C)[C@H](CC1)O[C@]1(CC[C@H](C)[C@H](C[C@@H](C)O)O1)[C@H]2C [Oligomycin] | 1 to 2 | 1 to 2 | – |
